Toxic doses and inconclusive results are not listed.
Test system: L1210 leukemia ip in BDF1 mice, survival T/C
Assay: NCI In Vivo Anticancer Drug Screen. Data for tumor model L1210 Leukemia (intraperitoneal) in B6D2F1 (BDF1) mice
Settings: endpoint: mean survival time, higher = longer survival
In short: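 Transplanted-tumor mice were given test agent; controls received vehicle only. Survival readings from the two groups were divided (treated over control).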

[1] = dose: 100.0 mg/kg/injection, schedule: Q01DX Z (ip), vehicle: methylcellulose (MC)
[2] = dose: 200.0 mg/kg/injection, schedule: Q01DX Z (ip), vehicle: methylcellulose (MC)
[3] = dose: 100.0 mg/kg/injection, schedule: Q04DX003 (ip), vehicle: saline with Tween-80
[4] = dose: 200.0 mg/kg/injection, schedule: Q04DX003 (ip), vehicle: saline with Tween-80
[5] = dose: 400.0 mg/kg/injection, schedule: Q04DX003 (ip), vehicle: saline with Tween-80
[6] = dose: 100.0 mg/kg/injection, schedule: Q01DX009 (ip), vehicle: Klucel (hydroxypropylcellulose) (HPC)
[7] = dose: 100.0 mg/kg/injection, schedule: Q04DX003 (ip), vehicle: Klucel (hydroxypropylcellulose) (HPC)
[8] = dose: 200.0 mg/kg/injection, schedule: Q01DX009 (ip), vehicle: Klucel (hydroxypropylcellulose) (HPC)
[9] = dose: 200.0 mg/kg/injection, schedule: Q04DX003 (ip), vehicle: Klucel (hydroxypropylcellulose) (HPC)
[10] = dose: 100.0 mg/kg/injection, schedule: Q04DX003 (ip), vehicle: saline
[11] = dose: 200.0 mg/kg/injection, schedule: Q04DX003 (ip), vehicle: saline
[12] = dose: 100.0 mg/kg/injection, schedule: Q01DX001 (ip), vehicle: saline
[13] = dose: 200.0 mg/kg/injection, schedule: Q01DX001 (ip), vehicle: saline
[14] = dose: 400.0 mg/kg/injection, schedule: Q01DX001 (ip), vehicle: saline
[15] = dose: 400.0 mg/kg/injection, schedule: Q01DX009 (ip), vehicle: Klucel (hydroxypropylcellulose) (HPC)

Structure (SMILES): CCOC(=O)c1cn[nH]c1/N=N/N(C)C
- T/C (dose: 42.0 mg/kg/injection, schedule: Q01DX009 (ip), vehicle: carboxymethylcellulose (CMC)): 113 % of control
- T/C (dose: 178.0 mg/kg/injection, schedule: Q01DX001 (ip), vehicle: carboxymethylcellulose (CMC)): 110 % of control
- T/C (dose: 267.0 mg/kg/injection, schedule: Q01DX001 (ip), vehicle: carboxymethylcellulose (CMC)): 112 % of control

Structure (SMILES): CSc1nc(Cl)c(Br)c(N2CC2)n1
- T/C [1]: 110 % of control
- T/C [2]: 108 % of control

Structure (SMILES): Cc1[nH]ncc1Br
- T/C [3]: 98 % of control
- T/C [4]: 92 % of control
- T/C [5]: 103 % of control

Structure (SMILES): COc1ccc(/C=C2\C(=O)OC(=O)\C2=C\c2ccc(OC)c(OC)c2)cc1OC
- T/C [6]: 100 % of control
- T/C [7]: 102 % of control
- T/C [8]: 97 % of control
- T/C [9]: 102 % of control
- T/C (dose: 400.0 mg/kg/injection, schedule: Q04DX003 (ip), vehicle: Klucel (hydroxypropylcellulose) (HPC)): 96 % of control

Structure (SMILES): CN1C(=O)N(C)C(=O)C(Cc2ccccc2)(Cc2ccccc2)C1=O
- T/C (dose: 10.0 mg/kg/injection, schedule: Q01DX001 (ip), vehicle: saline): 109 % of control
- T/C (dose: 20.0 mg/kg/injection, schedule: Q01DX001 (ip), vehicle: saline): 105 % of control

Structure (SMILES): COC(C)C(Br)C(=O)O (centres undefined)
- T/C (dose: 50.0 mg/kg/injection, schedule: Q01DX009 (ip), vehicle: saline): 98 % of control
- T/C (dose: 100.0 mg/kg/injection, schedule: Q01DX009 (ip), vehicle: saline): 95 % of control
- T/C [10]: 88 % of control
- T/C (dose: 200.0 mg/kg/injection, schedule: Q01DX009 (ip), vehicle: saline): 90 % of control
- T/C [11]: 90 % of control

Structure (SMILES): COc1ccc(NC(=O)/C=C/C(=O)Nc2ccc(OC)cc2)cc1
- T/C [3]: 100 % of control
- T/C [4]: 112 % of control
- T/C [5]: 100 % of control

Structure (SMILES): CN1CN(c2ccccc2)C2(CCN(Cc3ccccc3)CC2)C1=O
- T/C [12]: 101 % of control
- T/C [13]: 101 % of control
- T/C [14]: 103 % of control

Structure (SMILES): O=[N+]([O-])c1ccc(N=Cc2ccc(Cl)cc2Cl)c(O)c1
- T/C (dose: 100.0 mg/kg/injection, schedule: Q04DX002 (ip), vehicle: saline with Tween-80): 86 % of control
- T/C (dose: 200.0 mg/kg/injection, schedule: Q04DX002 (ip), vehicle: saline with Tween-80): 120 % of control
- T/C (dose: 400.0 mg/kg/injection, schedule: Q04DX002 (ip), vehicle: saline with Tween-80): 99 % of control

Structure (SMILES): COc1cc([N+](=O)[O-])ccc1NC(=O)Nc1ccccc1F
- T/C [6]: 98 % of control
- T/C [8]: 93 % of control
- T/C [15]: 89 % of control

Structure (SMILES): O=C(CCCC(=O)N/N=C/c1ccc(Cl)c(Cl)c1)N/N=C\c1ccc(Cl)c(Cl)c1
- T/C (dose: 50.0 mg/kg/injection, schedule: Q01DX001 (ip), vehicle: saline): 116 % of control
- T/C [12]: 110 % of control
- T/C [13]: 118 % of control
- T/C [14]: 100 % of control

Structure (SMILES): Cc1cc(Cl)c(C)c(Cl)c1Cl
- T/C (dose: 100.0 mg/kg/injection, schedule: Q01DX001 (ip), vehicle: acetone): 100 % of control
- T/C (dose: 100.0 mg/kg/injection, schedule: Q01DX009 (ip), vehicle: acetone): 92 % of control
- T/C (dose: 100.0 mg/kg/injection, schedule: Q04DX003 (ip), vehicle: acetone): 93 % of control
- T/C (dose: 200.0 mg/kg/injection, schedule: Q01DX001 (ip), vehicle: acetone): 97 % of control
- T/C (dose: 200.0 mg/kg/injection, schedule: Q01DX009 (ip), vehicle: acetone): 95 % of control
- T/C (dose: 200.0 mg/kg/injection, schedule: Q04DX003 (ip), vehicle: acetone): 97 % of control
- T/C (dose: 400.0 mg/kg/injection, schedule: Q01DX001 (ip), vehicle: acetone): 90 % of control
- T/C (dose: 400.0 mg/kg/injection, schedule: Q01DX009 (ip), vehicle: acetone): 95 % of control
- T/C (dose: 400.0 mg/kg/injection, schedule: Q04DX003 (ip), vehicle: acetone): 92 % of control

Structure (SMILES): CCN(CC)C/C=C/C(C)Nc1ccnc2cc(Cl)ccc12 (centres undefined)
- T/C (dose: 5.0 mg/kg/injection, schedule: Q04DX002 (ip), vehicle: saline with Tween-80): 98 % of control
- T/C (dose: 10.0 mg/kg/injection, schedule: Q04DX002 (ip), vehicle: saline with Tween-80): 98 % of control
- T/C (dose: 20.0 mg/kg/injection, schedule: Q04DX002 (ip), vehicle: saline with Tween-80): 94 % of control

Structure (SMILES): CSc1nc(O)c(-c2ccccc2)c(=O)[nH]1
- T/C [1]: 103 % of control
- T/C [2]: 101 % of control

Structure (SMILES): N#CC(C#N)=C(C#N)C#N
- T/C (dose: 3.13 mg/kg/injection, schedule: Q01DX009 (ip), vehicle: Klucel (hydroxypropylcellulose) (HPC)): 95 % of control
- T/C (dose: 6.25 mg/kg/injection, schedule: Q01DX009 (ip), vehicle: Klucel (hydroxypropylcellulose) (HPC)): 91 % of control

Structure (SMILES): COc1ccc(CN2CC(C)N(N)C(C)C2)cc1 (centres undefined)
- T/C (dose: 100.0 mg/kg/injection, schedule: Q01DX005 (ip), vehicle: saline): 98 % of control

Structure (SMILES): COc1cc(N(CCCl)CCCl)c(OC)cc1/C=N\Nc1nnc(C)n1N
- T/C (dose: 2.5 mg/kg/injection, schedule: Q01DX015 (ip), vehicle: carboxymethylcellulose (CMC)): 115 % of control
- T/C (dose: 5.0 mg/kg/injection, schedule: Q01DX015 (ip), vehicle: carboxymethylcellulose (CMC)): 121 % of control
- T/C (dose: 10.0 mg/kg/injection, schedule: Q01DX015 (ip), vehicle: carboxymethylcellulose (CMC)): 155 % of control
- T/C (dose: 30.0 mg/kg/injection, schedule: Q01DX015 (ip), vehicle: carboxymethylcellulose (CMC)): 103 % of control
- T/C (dose: 44.0 mg/kg/injection, schedule: Q01DX001 (ip), vehicle: carboxymethylcellulose (CMC)): 103 % of control
- T/C (dose: 50.0 mg/kg/injection, schedule: Q01DX001 (ip), vehicle: carboxymethylcellulose (CMC)): 120 % of control
- T/C (dose: 67.0 mg/kg/injection, schedule: Q01DX001 (ip), vehicle: carboxymethylcellulose (CMC)): 115 % of control
- T/C (dose: 100.0 mg/kg/injection, schedule: Q01DX001 (ip), vehicle: carboxymethylcellulose (CMC)): 161 % of control
- T/C (dose: 400.0 mg/kg/injection, schedule: Q01DX001 (ip), vehicle: carboxymethylcellulose (CMC)): 97 % of control

Structure (SMILES): Cc1ccc(C=C2c3ccccc3-c3ccccc32)cc1
- T/C (dose: 12.5 mg/kg/injection, schedule: Q04DX002 (ip), vehicle: gum acacia): 120 % of control
- T/C (dose: 25.0 mg/kg/injection, schedule: Q04DX002 (ip), vehicle: gum acacia): 88 % of control
- T/C (dose: 50.0 mg/kg/injection, schedule: Q04DX002 (ip), vehicle: gum acacia): 98 % of control

Structure (SMILES): O=C(O)C1CC2CCC1CC2 (centres undefined)
- T/C [12]: 104 % of control
- T/C [6]: 100 % of control
- T/C [3]: 92 % of control
- T/C [13]: 93 % of control
- T/C [8]: 92 % of control
- T/C [4]: 95 % of control
- T/C [14]: 100 % of control
- T/C [15]: 92 % of control
- T/C [5]: 101 % of control

Structure (SMILES): CCCCNC(=O)NNC(=O)OCC
- T/C [10]: 100 % of control
- T/C [11]: 100 % of control
- T/C (dose: 400.0 mg/kg/injection, schedule: Q04DX003 (ip), vehicle: saline): 100 % of control

Structure (SMILES): NC(=O)c1ccccc1NC(=O)Nc1c(Cl)cccc1Cl
- T/C [6]: 94 % of control
- T/C [8]: 106 % of control
- T/C [15]: 120 % of control

Structure (SMILES): CC(=O)NCCc1ccc(NCc2cnc3nc(N)nc(N)c3n2)cc1
- T/C (dose: 20.0 mg/kg/injection, schedule: Q01DX009 (ip), vehicle: Klucel (hydroxypropylcellulose) (HPC)): 98 % of control
- T/C (dose: 40.0 mg/kg/injection, schedule: Q01DX009 (ip), vehicle: Klucel (hydroxypropylcellulose) (HPC)): 96 % of control
- T/C (dose: 80.0 mg/kg/injection, schedule: Q01DX009 (ip), vehicle: Klucel (hydroxypropylcellulose) (HPC)): 98 % of control

Structure (SMILES): CC(=O)N(C)c1ccc(NC(=O)Nc2cc(C(F)(F)F)ccc2Cl)cc1
- T/C [6]: 96 % of control
- T/C [8]: 94 % of control
- T/C [15]: 94 % of control

Structure (SMILES): CC(=O)Nc1cccc2ccccc12
- T/C [3]: 97 % of control
- T/C [4]: 101 % of control
- T/C [5]: 100 % of control

Structure (SMILES): CN(C)C=O.CN(C)C=O.[Cl][Sn]([Cl])([Cl])[Cl]
- T/C (dose: 50.0 mg/kg/injection, schedule: Q01DX009 (ip), vehicle: Klucel (hydroxypropylcellulose) (HPC)): 103 % of control
- T/C [6]: 93 % of control
- T/C [7]: 92 % of control
- T/C [9]: 92 % of control

Reference: PubChem BioAssay AID248 (DTP/NCI, 2004)
